In the supplement of paper PMC8967900:

Columns and labels:
Assay in all cases: selective drug sensitivity score (sDSS, relative to normal bone marrow) (sDSS (score)); higher = more potent and effective on the cell line relative to normal bone marrow cells
Details in all cases: 72 h
[1] = tested on: 697
[2] = tested on: NALM-16
[3] = tested on: JURKAT
[4] = tested on: RPMI-8402
[5] = tested on: REH
[6] = tested on: COG-LL-317
[7] = tested on: COG-LL-402h
[8] = tested on: MHH-CALL-3
[9] = tested on: MOLT-14
[10] = tested on: KOPN-8
[11] = tested on: TANOUE
[12] = tested on: SUP-B15
[13] = tested on: MHH-CALL-2
[14] = tested on: HAL-01
[15] = tested on: KASUMI-9
[16] = tested on: HPB-ALL
[17] = tested on: 380
[18] = tested on: MOLT-16
[19] = tested on: NALL-1
[20] = tested on: NALM-6
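Note: ALL cell lines in 384-well plates, five doses spanning 10,000-fold, each plate scaled between vehicle and 100 µmol/L benzalkonium chloride controls, sDSS an adapted area-under-curve metric.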

| Compound | selective drug sensitivity score [1] | selective drug sensitivity score [2] | selective drug sensitivity score [3] | selective drug sensitivity score [4] | selective drug sensitivity score [5] | selective drug sensitivity score [6] | selective drug sensitivity score [7] | selective drug sensitivity score [8] | selective drug sensitivity score [9] | selective drug sensitivity score [10] | selective drug sensitivity score [11] | selective drug sensitivity score [12] | selective drug sensitivity score [13] | selective drug sensitivity score [14] | selective drug sensitivity score [15] | selective drug sensitivity score [16] | selective drug sensitivity score [17] | selective drug sensitivity score [18] | selective drug sensitivity score [19] | selective drug sensitivity score [20] |
| --- | --- | --- | --- | --- | --- | --- | --- | --- | --- | --- | --- | --- | --- | --- | --- | --- | --- | --- | --- | --- |
| CCCN(CCC)C(=O)C1=Cc2ccc(-c3ccc(C(=O)N4CCCC4)cc3)cc2N=C(N)C1 [Motolimod] (top concentration 10000 nM) | -2.68 | -4.48 | -2.58 | -2.28 | -2.48 | -4.08 | -4.48 | -4.48 | -4.28 | 1.52 | -4.48 | -3.58 | -3.98 | -4.18 | 1.22 | -3.38 | -4.38 | -2.78 | -4.48 | -3.38 |
| Cc1cc(-c2ncc(CC(=O)Nc3ccc(-c4cnccn4)cn3)cc2C)ccn1 [NVP-LGK974] (top concentration 10000 nM) | 5.6 | 0.7 | 7.3 | 4.9 | 4 | -1.2 | -0.1 | 2 | 1 | 2.6 | 5.7 | 3.9 | 1.9 | -0.8 | 0.1 | -0.6 | 1 | 4.9 | 1.5 | 3.7 |
| CC1(C)NC(=O)N(c2ccc([N+](=O)[O-])c(C(F)(F)F)c2)C1=O [Nilutamide] (top concentration 10000 nM) | 0.22 | -0.48 | 1.32 | -0.18 | 0.22 | -0.48 | -0.48 | -0.48 | -0.48 | -0.48 | -0.48 | -0.48 | 7.92 | 2.82 | -0.28 | -0.48 | -0.48 | 2.72 | 7.02 | 1.82 |
| CNC(=O)c1ccc2cc([C@@]3(O)CCn4cncc43)ccc2c1 [Orteronel] (top concentration 10000 nM) | 0 | 0 | 0 | 0 | 0 | 0 | 0 | 0 | 0 | 1 | 0 | 2.1 | 0 | 0 | 0 | 0 | 1.4 | 0 | 0 | 0 |
| C=CCc1cccc(/C=N/NC(=O)CN2CCN(Cc3ccccc3)CC2)c1O [PAC-1] (top concentration 10000 nM) | 4.08 | 3.58 | 1.28 | 1.78 | 3.48 | 12.7 | 4.98 | -0.22 | 8.28 | 5.28 | 2.08 | 2.08 | 5.58 | 3.38 | 0.38 | 0.98 | 0.38 | 2.68 | -0.42 | 2.18 |
| O=C(Nc1cccnc1)N1CCC(Cc2cccc(Oc3ccc(C(F)(F)F)cn3)c2)CC1 [PF-3845] (top concentration 10000 nM) | 4.06 | 0.36 | 6.36 | 4.66 | 2.96 | 0.26 | -0.84 | -1.34 | 2.26 | 0.46 | 3.66 | 3.16 | -0.24 | -0.84 | -0.84 | -0.14 | -1.34 | 2.66 | -1.24 | 2.86 |
| COc1cc(Br)c(Nc2nc(-c3c(C)nc4ncccn34)cs2)c(Br)c1 [PTC-209] (top concentration 10000 nM) | 5.62 | -2.38 | 0.62 | 1.02 | 3.62 | 0.42 | -0.78 | -5.08 | -0.88 | 4.82 | -2.58 | -0.18 | 1.92 | 0.42 | 1.92 | 6.92 | -1.48 | 0.72 | -1.78 | 2.22 |
| C=CC(=O)N1CCC(Oc2cc3c(Nc4ccc(Cl)c(Cl)c4F)ncnc3cc2OC)CC1 [Poziotinib] (top concentration 1000 nM) | -0.22 | -0.22 | -0.22 | -0.22 | -0.22 | 2.68 | 1.58 | 3.08 | 0.78 | -0.22 | -0.22 | 2.98 | -0.22 | 1.18 | 0.98 | -0.12 | -0.22 | -0.22 | 3.28 | -0.22 |
| CC[C@H](C)C(=O)O[C@H]1C[C@H](O)C=C2C=C[C@H](C)[C@H](CC[C@@H](O)C[C@@H](O)CC(=O)O)[C@H]21 [Pravastatin] (top concentration 10000 nM) | -0.66 | -0.66 | -0.66 | -0.66 | -0.66 | 0.94 | -0.46 | 0.74 | -0.16 | -0.66 | -0.66 | 0.04 | -0.36 | 0.64 | -0.66 | -0.66 | 3.04 | -0.66 | -0.66 | -0.66 |
| COC(=O)c1ccc([C@H]2c3[nH]c4ccccc4c3C[C@H](C(=O)OC)N2C(=O)CCl)cc1 [RSL3] (top concentration 10000 nM) | 0 | 0 | 0 | 1.2 | 3.1 | 0.3 | 0 | 0.7 | 0 | 0 | 0 | 0 | 0.1 | 3.5 | 0 | 0.4 | 14.2 | 0 | 5.2 | 1.5 |
| Cc1cnc(NC(=O)Nc2cc(Br)c(C)cc2OC[C@@H]2CNCCO2)cn1 [Rabusertib] (top concentration 1000 nM) | -0.74 | -0.74 | -0.74 | 0.46 | 0.06 | 7.36 | 1.36 | -0.74 | 0.16 | 1.66 | 0.46 | -0.74 | 0.66 | 3.06 | -0.04 | -0.74 | -0.74 | -0.14 | -0.74 | 1.16 |
| CCOCc1nc2c(N)nc3ccccc3c2n1CC(C)(C)O [Resiquimod] (top concentration 10000 nM) | -4.62 | -4.92 | -4.52 | -4.92 | -4.92 | -4.02 | -4.32 | -4.82 | -4.92 | -4.92 | -3.02 | -1.22 | -4.92 | -4.62 | -4.92 | -4.92 | -4.62 | -3.22 | -4.92 | -4.42 |
| C[C@H]1CNCCCN1S(=O)(=O)c1cccc2cncc(F)c12 [Ripasudil] (top concentration 10000 nM) | 2.68 | -0.22 | -0.22 | 0.98 | -0.22 | -0.22 | -0.22 | -0.22 | -0.22 | 0.88 | -0.22 | 4.88 | -0.02 | -0.22 | -0.22 | -0.22 | 3.28 | -0.22 | -0.22 | -0.22 |
| Cc1nc(C(=O)NCC(=O)O)c(O)c2ccc(Oc3ccccc3)cc12 [Roxadustat] (top concentration 10000 nM) | -0.92 | -1.12 | -0.42 | -0.82 | -1.12 | -1.12 | -1.12 | -1.12 | -0.32 | -0.92 | -1.12 | -1.12 | -1.12 | 1.08 | -0.82 | 5.28 | 7.48 | 0.88 | -1.12 | -1.12 |
| CN(C)C[C@@H]1CCn2cc(c3ccccc32)C2=C(C(=O)NC2=O)c2cn(c3ccccc23)CCO1 [Ruboxistaurin] (top concentration 10000 nM) | 2.36 | -3.74 | -1.84 | -1.74 | -0.54 | 1.16 | 0.96 | -4.24 | 1.66 | 0.86 | -8.24 | 0.06 | 3.66 | 1.16 | 1.36 | -5.14 | 3.96 | -0.34 | -3.04 | -2.64 |
| CN(CC(=O)N(Cc1ccc(C2CCCCC2)cc1)c1ccc(C(=O)O)cc1)S(=O)(=O)c1c(F)c(F)c(F)c(F)c1F [SH-4-54] (top concentration 25000 nM) | -2.64 | -5.04 | -6.14 | -5.74 | -5.04 | -5.44 | -2.14 | -0.84 | -4.34 | -1.94 | -4.04 | -5.94 | -7.24 | -6.34 | -6.14 | -6.84 | 6.06 | -6.74 | -6.84 | -3.34 |
| Cc1cc2c(C(=O)NC[C@H](C)c3ccccc3)c(O)c(O)cc2c(O)c1-c1c(C)cc2c(C(=O)NC[C@H](C)c3ccccc3)c(O)c(O)cc2c1O [Sabutoclax] (top concentration 25000 nM) | 15.9 | 6.78 | 16.7 | 4.38 | 17.5 | 15.6 | 15.3 | -8.12 | 16.8 | 17.9 | 2.98 | 16 | -7.82 | -7.62 | 14.9 | 19.4 | 14.1 | 17.6 | -8.22 | 14.3 |
| CC1=C2C[C@H]3[C@@H](CC[C@@H]4C[C@H](NS(C)(=O)=O)CC[C@@]43C)[C@@H]2CC[C@@]2(C1)O[C@@H]1C[C@H](C)CN[C@H]1[C@H]2C [Saridegib] (top concentration 10000 nM) | 1.24 | 0.04 | -0.56 | 0.54 | -1.16 | -1.16 | 0.94 | 0.34 | 1.04 | -1.16 | -1.16 | 0.64 | 3.14 | 1.14 | -0.06 | 0.34 | -0.96 | -0.26 | -0.26 | -1.16 |
